Legend:
[1] = system: Pane 1 pancreatic cancer cells; test: MTS cell viability assay; format: cell-based; details: 24 hrs; 3.2 μM liposomes; 0.01, 0.1 or 1 μM vinblastine; p<0.05 free vs encapsulated vinblastine
Description: Pane 1 pancreatic cancer cells were treated with 3.2 μM anionic (A) and neutral ceramide (C6) or non-ceramide nanoliposomes that either contained 0.01, 0.1 or 1 μM vinblastine or PBS. Ghost liposomes contained no ceramide or vinblastine. Unencapsulated (free) vinblastine was also administered at similar concentrations. All treatments were for 24 hrs.
Cell viability was assessed by MTS assay, which measures cellular respiration as a function of reduction of MTS to formazene at 490 nm. […] N=6 individual samples for each condition, replicated in triplicate.
MTS (3-(4,5-dimethylthiazol-2-yl)-5-(3-carboxymethoxyphenyl)-2-(4-sulfophenyl)-2H-tetrazolium), in the presence of phenazine methosulfate (PMS), produces a reduced formazan product, whose purple color can be assessed. In living cells, reduced formazan has an absorbance maximum at 490-500 nm in phosphate-buffered saline. The MTS assay is often described as a ‘one-step’ MTT assay, which offers the convenience of adding the reagent straight to the cell culture without the intermittent steps required in the MTT assay. However this convenience makes the MTS assay susceptible to cololmetric interference as the intermittent steps in the MTT assay remove traces of colored compounds, whilst these remain in the microtiter plate in the one-step MTS assay.

primary human AML cells = test: Clonogeneic growth in semisolid media; format: cell-based; details: 12-14 days in semi-solid medium; FIG. 3A
Text: For FIG. 3A, primary human AML cells (n=5) were thawed and grown for 12-14 days in semi-solid medium with the indicated concentration of Lip-C6 or Lip-ghost and/or vinblastine.

## CC[C@]1(O)C[C@@H]2CN(CCc3c([nH]c4ccccc34)[C@@](C(=O)OC)(c3cc4c(cc3OC)N(C)[C@H]3[C@@](O)(C(=O)OC)[C@H](OC(C)=O)[C@]5(CC)C=CCN6CC[C@]43[C@@H]65)C2)C1 [vinblastine]
[1]
  cell viability (MTS): Only the high concentration of free vinblastine reduced cell viability
Primary human AML cells
  growth and survival / colony formation: potentiates the inhibitory activity of C6 ceramide nanoliposomes
